Measured values: patent US9765067B2, “Thiophen-2-yl-pyridin-2-yl-1H-pyrazole-4-carboxylic acid derivatives and the use thereof as soluble guanylate cyclase activators” (Novartis AG, priority 2014, dated 2017)

Each compound was assayed against T1, soluble guanylate cyclase (human GUCYA3/GUCYB3) overexpressed in CHO cells (Homo sapiens, UniProt Q02108+Q02153) (assay: CHO cellular assay (cGMP production, HTRF)). Settings: CHO K1 clone 8E10 overexpressing human sGC, Cisbio HTRF, 1 h room temperature, 1 mM IBMX, 20 uM ODQ, minimum quantification limit 0.5 nM.
T1 construct: expressed in transfected cells
T1 sequence (Q02108 1-690 partner): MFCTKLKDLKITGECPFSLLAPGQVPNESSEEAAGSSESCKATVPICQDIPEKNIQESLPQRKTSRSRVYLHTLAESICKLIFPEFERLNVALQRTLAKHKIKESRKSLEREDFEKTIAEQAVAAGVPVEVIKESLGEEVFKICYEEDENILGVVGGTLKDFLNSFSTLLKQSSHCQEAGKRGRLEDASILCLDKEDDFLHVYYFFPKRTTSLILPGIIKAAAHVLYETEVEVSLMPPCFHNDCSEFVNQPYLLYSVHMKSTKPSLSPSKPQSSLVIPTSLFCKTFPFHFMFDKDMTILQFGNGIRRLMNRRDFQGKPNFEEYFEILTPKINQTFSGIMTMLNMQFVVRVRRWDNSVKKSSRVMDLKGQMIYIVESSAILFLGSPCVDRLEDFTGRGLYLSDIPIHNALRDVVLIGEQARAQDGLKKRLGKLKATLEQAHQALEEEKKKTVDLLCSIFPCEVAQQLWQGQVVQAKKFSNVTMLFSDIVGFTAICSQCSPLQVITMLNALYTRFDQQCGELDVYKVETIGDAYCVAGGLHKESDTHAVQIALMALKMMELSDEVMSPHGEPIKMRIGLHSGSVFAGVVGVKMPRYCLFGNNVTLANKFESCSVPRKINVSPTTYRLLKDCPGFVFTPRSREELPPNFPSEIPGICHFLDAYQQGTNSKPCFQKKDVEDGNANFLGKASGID
T1 sequence (Q02153 1-619): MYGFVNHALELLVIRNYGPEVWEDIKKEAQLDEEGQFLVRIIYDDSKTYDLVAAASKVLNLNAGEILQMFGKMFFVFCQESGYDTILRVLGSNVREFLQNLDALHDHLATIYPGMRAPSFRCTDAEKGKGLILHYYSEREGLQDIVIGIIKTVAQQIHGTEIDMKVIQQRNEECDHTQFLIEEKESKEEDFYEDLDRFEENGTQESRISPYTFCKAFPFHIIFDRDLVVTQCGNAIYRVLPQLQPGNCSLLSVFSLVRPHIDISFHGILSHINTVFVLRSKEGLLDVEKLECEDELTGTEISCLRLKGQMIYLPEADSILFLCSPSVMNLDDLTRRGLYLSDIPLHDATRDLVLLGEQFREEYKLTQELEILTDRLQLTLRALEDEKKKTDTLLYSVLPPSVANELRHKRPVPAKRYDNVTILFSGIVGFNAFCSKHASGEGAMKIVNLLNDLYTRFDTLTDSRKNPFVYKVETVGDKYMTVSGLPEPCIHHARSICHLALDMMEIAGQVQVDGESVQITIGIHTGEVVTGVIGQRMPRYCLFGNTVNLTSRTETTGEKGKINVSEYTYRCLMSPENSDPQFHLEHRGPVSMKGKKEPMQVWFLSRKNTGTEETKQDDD
Format: cell-based
How it was run: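 Stable CHO K1 clone expressing human GUCYA3/GUCYB3. Compounds applied 1 h at room temperature in HBSS, 0.1% BSA, 1 mM IBMX, 20 uM ODQ, 0.5% DMSO. cGMP measured by HTRF and interpolated from a standard curve; EC50 from 4-parameter sigmoidal fit.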

SMILES | EC50 [nM]
CCC(=O)N1CCC(c2ccc(OCc3cc(C(C)C)sc3-c3cccc(-n4ncc(C(=O)O)c4C(F)(F)F)n3)c(C)c2)CC1 [Example 35-2, 1-(6-(5-Isopropyl-3-((2-methyl-4-(1-propionylpiperidin-4-yl)phenoxy)methyl)thiophen-2-yl)pyridin-2-yl)-5-(trifluoromethyl)-1H-pyrazole-4-carboxylic acid] | 678
CCCc1cc(COc2ccc(C3CCN(C(=O)CC)CC3)cc2C)c(-c2cccc(-n3ncc(C(=O)O)c3C(F)(F)F)n2)s1 [Example 35-3, 1-(6-(3-((2-Methyl-4-(1-propionylpiperidin-4-yl)phenoxy)methyl)-5-propylthiophen-2-yl)pyridin-2-yl)-5-(trifluoromethyl)-1H-pyrazole-4-carboxylic acid] | 195
Cc1cc(COc2ccc(C3CCN(C(=O)C4CC4)CC3)c(C)c2)c(-c2cccc(-n3ncc(C(=O)O)c3C(F)(F)F)n2)s1 [Example 35-4, 1-(6-(3-((4-(1-(Cyclopropanecarbonyl)piperidin-4-yl)-3-methylphenoxy)methyl)-5-methylthiophen-2-yl)pyridin-2-yl)-5-(trifluoromethyl)-1H-pyrazole-4-carboxylic acid] | 2
Cc1cc(OCc2ccsc2-c2cccc(-n3ncc(C(=O)O)c3C(F)(F)F)n2)ccc1C1CCN(C(=O)C2CC2)CC1 [Example 35-5, 1-(6-(3-((4-(1-(Cyclopropanecarbonyl)piperidin-4-yl)-3-methylphenoxy)methyl)thiophen-2-yl)pyridin-2-yl)-5-(trifluoromethyl)-1H-pyrazole-4-carboxylic acid] | 3
CCc1cc(OCc2cc(C)sc2-c2cccc(-n3ncc(C(=O)O)c3C(F)(F)F)n2)ccc1C1CCN(C(=O)N(C)C)CC1 [Example 35-7, 1-(6-(3-((4-(1-(Dimethylcarbamoyl)piperidin-4-yl)-3-ethylphenoxy)methyl)-5-methylthiophen-2-yl)pyridin-2-yl)-5-(trifluoromethyl)-1H-pyrazole-4-carboxylic acid] | ≤ 0.5
CCc1cc(OCc2cc(C)sc2-c2cccc(-n3ncc(C(=O)O)c3C)n2)ccc1C1CCN(C(=O)N(C)C)CC1 [Example 35-8, 1-(6-(3-((4-(1-(Dimethylcarbamoyl)piperidin-4-yl)-3-ethylphenoxy)methyl)-5-methylthiophen-2-yl)pyridin-2-yl)-5-methyl-1H-pyrazole-4-carboxylic acid] | ≤ 0.5
CCc1cc(OCc2cc(C)sc2-c2cccc(-n3ncc(C(=O)O)c3CC)n2)ccc1C1CCN(C(=O)C2CC2)CC1 [Example 35-9, 1-(6-(3-((4-(1-(Cyclopropanecarbonyl)piperidin-4-yl)-3-ethylphenoxy)methyl)-5-methylthiophen-2-yl)pyridin-2-yl)-5-ethyl-1H-pyrazole-4-carboxylic acid] | ≤ 0.5
CCc1c(C(=O)O)cnn1-c1cccc(-c2sc(C)cc2COc2ccc(C3CCN(C(=O)C4CC4)CC3)cc2C)n1 [Example 35-10, 1-(6-(3-((4-(1-(Cyclopropanecarbonyl)piperidin-4-yl)-2-methylphenoxy)methyl)-5-methylthiophen-2-yl)pyridin-2-yl)-5-ethyl-1H-pyrazole-4-carboxylic acid] | ≤ 0.5
Cc1cc(COc2ccc(C3CCN(C(=O)C4CC4)CC3)c(C3CC3)c2)c(-c2cccc(-n3ncc(C(=O)O)c3C(F)(F)F)n2)s1 [Example 35-12, 1-(6-(3-((4-(1-(Cyclopropanecarbonyl)piperidin-4-yl)-3-cyclopropylphenoxy)methyl)-5-methylthiophen-2-yl)pyridin-2-yl)-5-(trifluoromethyl)-1H-pyrazole-4-carboxylic acid] | 1
CCc1c(C2CCN(C(=O)C3CC3)CC2)ccc(OCc2cc(C)sc2-c2cccc(-n3ncc(C(=O)O)c3C(F)(F)F)n2)c1F [Example 35-13, 1-(6-(3-((4-(1-(Cyclopropanecarbonyl)piperidin-4-y1)-3-ethyl-2-fluorophenoxy)methyl)-5-methylthiophen-2-yl)pyridin-2-yl)-5-(trifluoromethyl)-1H-pyrazole-4-carboxylic acid] | 1
CCc1cc(OCc2cc(C)sc2-c2cccc(-n3ncc(C(=O)O)c3C(F)(F)F)n2)cnc1C1CCN(C(=O)C2CC2)CC1 [Example 35-14, 1-(6-(3-(((6-(1-(Cyclopropanecarbonyl)piperidin-4-yl)-5-ethylpyridin-3-yl)oxy)methyl)-5-methylthiophen-2-yl)pyridin-2-yl)-5-(trifluoromethyl)-1H-pyrazole-4-carboxylic acid] | 15
CCCc1cc(OCc2cc(C)sc2-c2cccc(-n3ncc(C(=O)O)c3C(F)(F)F)n2)ccc1C1CCN(C(=O)C2CC2)CC1 [Example 35-15, 1-(6-(3-((4-(1-(Cyclopropanecarbonyl)piperidin-4-yl)-3-propylphenoxy)methyl)-5-methylthiophen-2-yl)pyridin-2-yl)-5-(trifluoromethyl)-1H-pyrazole-4-carboxylic acid] | 1.4
Cc1cc(C2CCN(C(=O)C3CC3)CC2)ccc1NC(C)c1ccsc1-c1cccc(-n2ncc(C(=O)O)c2C(F)(F)F)c1 (stereo not drawn) [Example 36, 1-(3-(3-(1-((4-(1-(Cyclopropanecarbonyl)piperidin-4-yl)-2-methylphenyl)amino)ethyl)thiophen-2-yl)phenyl)-5-(trifluoromethyl)-1H-pyrazole-4-carboxylic acid] | 15
CCc1cc(NCc2cc(C)sc2-c2cccc(-n3ncc(C(=O)O)c3CC)n2)ccc1C1CCN(C(=O)C2CC2)CC1 [Example 37, 1-(6-(3-(((4-(1-(Cyclopropanecarbonyl)piperidin-4-yl)-3-ethylphenyl)amino)methyl)-5-methylthiophen-2-yl)pyridin-2-yl)-5-ethyl-1H-pyrazole-4-carboxylic acid] | ≤ 0.5
CCc1cc(NCc2c(C(F)(F)F)csc2-c2cccc(-n3ncc(C(=O)O)c3CC)n2)ccc1C1CCN(C(=O)C2CC2)CC1 [Example 38, 1-(6-(3-(((4-(1-(Cyclopropanecarbonyl)piperidin-4-yl)-3-ethylphenyl)amino)methyl)-4-(trifluoromethyl)thiophen-2-yl)pyridin-2-yl)-5-ethyl-1H-pyrazole-4-carboxylic acid] | ≤ 0.5
CCc1nc(OCc2cc(C)sc2-c2cccc(-n3ncc(C(=O)O)c3C(F)(F)F)n2)ccc1C1CCN(C(=O)C2CC2)CC1 [Example 39, 1-(6-(3-(((5-(1-(Cyclopropanecarbonyl)piperidin-4-yl)-6-ethylpyridin-2-yl)oxy)methyl)-5-methylthiophen-2-yl)pyridin-2-yl)-5-(trifluoromethyl)-1H-pyrazole-4-carboxylic acid] | 1
Cc1cc(C2CCN(CC(F)(F)F)CC2)ccc1OCc1cc(C(C)C)sc1-c1cccc(-n2ncc(C(=O)O)c2C(F)(F)F)n1 [Example 40, 1-(6-(5-Isopropyl-3-((2-methyl-4-(1-(2,2,2-trifluoroethyl)piperidin-4-yl)phenoxy)methyl)thiophen-2-yl)pyridin-2-yl)-5-(trifluoromethyl)-1H-pyrazole-4-carboxylic acid] | 370
CCCc1cc(COc2ccc(C3CCN(CC(F)(F)F)CC3)cc2C)c(-c2cccc(-n3ncc(C(=O)O)c3C(F)(F)F)n2)s1 [Example 41, 1-(6-(3-((2-Methyl-4-(1-(2,2,2-trifluoroethyl)piperidin-4-yl)phenoxy)methyl)-5-propylthiophen-2-yl)pyridin-2-yl)-5-(trifluoromethyl)-1H-pyrazole-4-carboxylic acid] | 428
